Reference: article PMC6270160, “Bioactive Phenylpropanoid Glycosides from Tabebuia avellanedae” (Molecules, 2013)

Legend:
[1] = molecular target: T1, cytochrome CYP3A4 enzyme (Homo sapiens, UniProt P08684); assay: Inhibitory activity on cytochrome CYP3A4 enzyme (Vivid substrate, P450 BACULOSOMES, fluorescence); format: in vitro ADME; settings: 20 min pre-incubation, 30 min reaction, fluorescence at 460 nm; read-out: IC50 ± SD, inhibitory activity on CYP3A4 enzyme
T1 construct: purchased
Description: Measurement of inhibitory activity on cytochrome CYP3A4 enzyme vivid substrate and fluorescent standards were reconstituted and a standard curve was prepared. 40 µL of test samples at different concentrations diluted in 1% DMSO, positive inhibition control and solvent were added to each 96-well plate, then was added 50 µL of Master pre-mix consisting of P450 BACULOSOMES in vivid CYP 450, Reaction Buffer and Regeneration System (consisting of glucose-6-phosphate and glucose-6-phosphate dehydrogenase), and the plate was mixed and incubated for 20 min to allow samples to interact with the CYP3A4 enzyme. The reaction was started by addition of 10 µL reaction starting liquid including vivid substrate, NADP and Reaction Buffer mixture, and the fluorescence was recorded using a LAS-3000 luminescent image analyzer at a wavelength of 460 nm after 30 min duration of reaction. The inhibition rate was calculated using the equation: % inhibition = [1 − relative fluorescence units (rfu) in the presence of the test sample or positive inhibition control/rfu in the absence of the test compound or positive inhibition control] × 100.

[2] = DPPH free radical scavenging (antioxidant) assay; settings: DPPH in MeOH, 30 min at room temperature in the dark, absorbance at 517 nm, triplicate; read-out: IC50 ± SD, scavenging activity on DPPH free radicals
Description: Test samples (100 µL) at different concentrations in MeOH and DPPH (200 µL, […]) in MeOH were added to 96-well microtiter plates. The plate was shaken for 1 min by a plate shaker, and incubated for 30 min at room temperature in the dark. After incubation, the absorbance was recorded at 517 nm. The tested samples at different concentrations without DPPH solution were used as blank control to eliminate the influence of the sample color. Ascorbic acid was used as positive control, and DPPH solution in MeOH served as a negative control. All tests were independently performed in triplicate. DPPH radical scavenging activity (%) = [1 − (AbsS − AbsB)/AbsC] × 100%.

T1 sequence (P08684 whole entry): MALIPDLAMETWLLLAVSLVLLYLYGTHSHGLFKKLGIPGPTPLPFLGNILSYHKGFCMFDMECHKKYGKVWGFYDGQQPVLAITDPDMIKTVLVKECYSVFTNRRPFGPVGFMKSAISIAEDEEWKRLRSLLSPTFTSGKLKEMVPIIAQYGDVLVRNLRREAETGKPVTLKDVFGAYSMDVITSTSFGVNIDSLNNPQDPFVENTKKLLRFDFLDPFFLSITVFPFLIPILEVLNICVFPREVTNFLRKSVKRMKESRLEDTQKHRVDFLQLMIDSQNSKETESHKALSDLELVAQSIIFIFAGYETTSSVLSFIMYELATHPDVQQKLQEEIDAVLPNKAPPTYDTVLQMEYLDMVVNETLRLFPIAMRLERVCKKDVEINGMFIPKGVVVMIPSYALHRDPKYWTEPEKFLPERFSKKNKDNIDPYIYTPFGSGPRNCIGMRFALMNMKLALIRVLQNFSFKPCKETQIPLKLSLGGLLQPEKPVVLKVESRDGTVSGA

Row | Compound | IC50 [1] [µM] | IC50 [2] [µM]
1 | C[C@@H]1O[C@@H](O[C@H]2[C@@H](O)[C@@H](CO)O[C@@H](OCCc3ccc(O)c(O)c3)[C@@H]2O)[C@H](O)[C@H](O)[C@H]1OC(=O)/C=C/c1ccc(O)c(O)c1 [Compound 5, 1'-O-β-(3,4-dihydroxyphenyl)-ethyl-[4′′-O-caffeoyl-(α-L-rhamnopyranosyl)]-(l-3′)-D-galactopyranoside] | 22.5 ± 1.65 | 0.12 ± 0.03
2 | CC1OC(OC2C(O)C(OCCc3ccc(O)c(O)c3)OC(CO)C2OC(=O)C=Cc2ccc(O)c(O)c2)C(O)C(O)C1O (stereo not shown) [Compound 1] | 46.3 ± 1.53 | 2.33 ± 0.06
3 | O=C1O[C@H]([C@@H](O)CO)C(O)=C1O [Ascorbic acid, reference compound] | – | 3.08 ± 0.06
4 | CC1OC(OC2C(O)C(CO)OC(OCCc3ccc(O)c(O)c3)C2O)C(O)C(O)C1OC(=O)C=Cc1ccc(O)c(O)c1 [Compound 6, 1′-O-β-(3,4-dihydroxyphenyl)-ethyl-[4′′-O-caffeoyl-(α-L-fucopyranosyl)]-(l-3′)-D-galactopyranoside] | 15.1 ± 2.43 | 0.24 ± 0.01
5 | CC1OC(OC2C(O)C(OCCc3ccc(O)c(O)c3)OC(CO)C2OC(=O)C=Cc2ccc(O)c(O)c2)C(O)C(O)C1O [Compound 2, 1′-O-β-(3,4-dihydroxyphenyl)-ethyl-4′-O-caffeoyl-α-L-fucopyranosyl-(l-3′)-D-glucopyranoside] | 43.3 ± 1.79 | 1 ± 0.02
6 | CC1OC(OC2C(O)C(COC(=O)C=Cc3ccc(O)c(O)c3)OC(OCCc3ccc(O)c(O)c3)C2O)C(O)C(O)C1O (stereo not shown) [Compound 4] | 91.7 ± 5.44 | 1.15 ± 0.04
7 | CC1OC(OC2C(O)C(OCCc3ccc(O)c(O)c3)OC(CO)C2OC(=O)C=Cc2ccc(O)c(O)c2)C(O)C(O)C1O (stereo not shown) [Compound 3] | 37.7 ± 2.11 | 0.66 ± 0.04
